Laboratory results published in patent publication US9428456B2, “1-[m-carboxamido(hetero)aryl-methyl]-heterocyclyl-carboxamide derivatives” (Actelion Pharmaceuticals Ltd., priority 2012, dated 2016).

Biological target: CXCR7 (Homo sapiens (Human), UniProt P25106)
Assay: PathHunter CHO-K1 CXCR7 b-arrestin assay (agonistic activity)
Type: cell-based
Conditions: PathHunter CHO-K1 CXCR7 b-arrestin cell line
Outline: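 CHO-K1 cells co-expressing ProLink-tagged CXCR7 and EA-fused β-arrestin 2 (enzyme fragment complementation); compounds added in HBSS/20 mM HEPES/0.2% BSA after 3–4 h in OPTIMEM, 90 min at 37 °C. Chemiluminescent β-gal signal read after 1 h detection at room temperature; EC50 reported as geometric mean of several measurements.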

Sequence of CXCR7 (P25106 whole entry): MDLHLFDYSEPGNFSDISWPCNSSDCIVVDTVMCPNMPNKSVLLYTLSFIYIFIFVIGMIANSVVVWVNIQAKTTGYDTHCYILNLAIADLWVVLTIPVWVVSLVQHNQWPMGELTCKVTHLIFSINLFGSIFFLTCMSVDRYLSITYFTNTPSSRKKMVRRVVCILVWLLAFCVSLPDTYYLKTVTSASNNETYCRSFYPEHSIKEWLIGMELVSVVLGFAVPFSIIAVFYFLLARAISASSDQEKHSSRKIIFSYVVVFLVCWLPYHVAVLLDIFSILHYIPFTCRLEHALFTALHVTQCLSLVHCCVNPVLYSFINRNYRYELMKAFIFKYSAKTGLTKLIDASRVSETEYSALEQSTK
Sequence of CXCR7 (P32121 whole entry partner): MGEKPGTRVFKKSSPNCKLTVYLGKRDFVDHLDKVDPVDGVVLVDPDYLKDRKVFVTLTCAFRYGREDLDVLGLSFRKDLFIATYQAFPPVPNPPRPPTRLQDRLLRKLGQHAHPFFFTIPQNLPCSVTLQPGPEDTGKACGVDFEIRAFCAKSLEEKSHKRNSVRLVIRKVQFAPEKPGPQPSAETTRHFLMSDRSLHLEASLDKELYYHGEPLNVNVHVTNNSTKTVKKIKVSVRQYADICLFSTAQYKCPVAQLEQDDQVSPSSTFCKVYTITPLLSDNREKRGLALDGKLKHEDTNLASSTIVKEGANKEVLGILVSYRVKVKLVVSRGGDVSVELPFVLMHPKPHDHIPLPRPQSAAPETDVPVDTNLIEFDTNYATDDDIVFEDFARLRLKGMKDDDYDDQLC

| Compound | EC50 [nM] |
| --- | --- |
| CCC(C)(C)NC(=O)C1CCN(Cc2cccc(NC(=O)c3ccc(C(F)(F)F)cn3)c2)CC1 [Example 1.341] | 1 |
| O=C(Nc1cccc(CN2CCC(C(=O)NC3CCCCC3)CC2)c1)c1c(F)cccc1C(F)(F)F [Example 1.145] | 425 |
| CC(c1cccc(NC(=O)c2ccc(N3CCCC3)cn2)c1)N1CCC(C(=O)NC2CCCCC2)CC1 (racemic) [Example 1.188] | 215 |
| O=C(Nc1cccc(CN2CCC(C(=O)NC3CCCCC3)CC2)c1)c1cc(Cl)ccn1 [Example 1.077] | 3 |
| O=C(Nc1cccc(CN2CCC(C(=O)NC3CCCCC3)CC2)c1)c1c[nH]c2ccccc12 [Example 1.027] | 42 |
| CC(C)(C)NC(=O)C1CCN(Cc2cccc(NC(=O)c3cccc(S(C)(=O)=O)c3)c2)CC1 [Example 1.352] | 71 |
| CC(C)(C)NC(=O)C1CCN(Cc2cccc(NC(=O)Cc3c(Cl)cccc3Cl)c2)CC1 [Example 1.245] | 1 |
| COC(=O)c1cncc(C(=O)Nc2cccc(CN3CCC(C(=O)NC4CCCCC4)CC3)c2)c1 [Example 1.350] | 29 |
| O=C(Nc1ccc(Cl)c(CN2CCC(C(=O)NC3CCCC3)CC2)c1)c1cncc(C(F)(F)F)c1 [Example 1.225] | 0.8 |
| C/C=C/C(=O)Nc1cccc(CN2CCC(C(=O)NC(C)(C)C)CC2)c1 [Example 1.335] | 21 |
| O=C(CC1CCCCC1)Nc1cccc(CN2CCC(C(=O)NC3CCCCC3)CC2)c1 [Example 1.043] | 9 |
| O=C(Nc1cccc(CN2CCC(C(=O)NC3CC3)CC2)c1)c1cc(Cl)ccn1 [Example 1.200] | 16 |
| O=C(Nc1cccc(CN2CCC(C(=O)NC3CCCCC3)CC2)c1)c1cnc[nH]1 [Example 1.040] | 1260 |
| CC(C)(C)NC(=O)C1CCN(Cc2cccc(NC(=O)c3ccc(Cl)cn3)c2)CC1 [Example 1.339] | 0.6 |
| Cc1ccc(C(=O)Nc2cccc(CN3CCC(C(=O)NC4CCCCC4)CC3)c2)c(F)c1 [Example 1.119] | 6 |
| Cc1ccc(C)c(C(=O)Nc2cccc(CN3CCC(C(=O)NC4CCCCC4)CC3)c2)c1 [Example 1.110] | 8 |
| Cc1cc(C(=O)Nc2cccc(CN3CCC(C(=O)NC(C)(C)C)CC3)c2)c[n+]([O-])c1 [Example 4.022, N-[3-(4-tert-Butylcarbamoyl-piperidin-1-ylmethyl)-phenyl]-5-methyl-1-oxy-nicotinamide] | 234 |
| CC(C)(C)NC(=O)C1CCN(Cc2cccc(NC(=O)c3cnc4ccccc4c3)c2)CC1 [Example 1.233] | 2 |
| Cc1ccc(C(=O)Nc2cccc(CN3CCC(C(=O)NC4CCCCC4)CC3)c2)cc1 [Example 1.101] | 4 |
| Cc1ccc(C(=O)Nc2cccc(C(C)N3CCC(C(=O)NC4CCCCC4)CC3)c2)cn1 (racemic) [Example 1.181] | 148 |
| O=C(Nc1cccc(CN2CCC(C(=O)NC3CCCCC3)CC2)c1)C1CC1 [Example 1.149] | 81 |
| COc1ccccc1CC(=O)Nc1cccc(CN2CCC(C(=O)NC3CCCCC3)CC2)c1 [Example 1.035] | 4 |
| CC(C)(C)NC(=O)C1CCN(Cc2cccc(NC(=O)C3(c4ccc(Cl)cc4)CC3)c2)CC1 [Example 1.310] | 2 |
| CC(C)Cc1cc(C(=O)Nc2cccc(C(C)N3CCC(C(=O)NC4CCCCC4)CC3)c2)n(C)n1 (racemic) [Example 1.189] | 15 |

| Compound | EC50 [nM] |
| --- | --- |
| CC(C)(C)NC(=O)C1CCN(Cc2cccc(NC(=O)Cc3c(F)cccc3Cl)c2)CC1 [Example 1.247] | 2 |
| O=C(Nc1cccc(CN2CCC(C(=O)NC3CCCCC3)CC2)c1)c1ccc(Cl)c2c1CCO2 [Example 1.143] | 5 |
| O=C(Nc1cccc(CN2CCC(C(=O)NC3CCCCC3)CC2)c1)c1ncccn1 [Example 1.087] | 36 |
| CC(C)(C)NC(=O)C1CCN(Cc2cccc(NC(=O)c3cccc(Br)n3)c2)CC1 [Example 1.344] | 0.9 |
| CC(C)(C)NC(=O)C1CCN(Cc2cccc(NC(=O)CC3Cc4ccccc4C3)c2)CC1 [Example 1.272] | 2 |
| CC(C)(C)NC(=O)C1CCN(Cc2cccc(NC(=O)c3cc(C(F)(F)F)ccn3)c2)CC1 [Example 1.242] | 6 |
| CCc1ccc(CN2CCC(C(=O)NC(C)(C)C)CC2)cc1NC(=O)c1cncc(C)c1 [Example 1.327] | 28 |
| CCNC(=O)C1CCCN(Cc2cccc(NC(=O)c3cncc(C)c3)c2)CC1 (racemic) [Example 1.287] | 181 |
| O=C(Nc1cccc(CN2CCC(C(=O)NC3CCCC3)CC2)c1)c1ccc(C(F)(F)F)cn1 [Example 1.210] | 0.6 |
| Cc1cc(C(=O)Nc2cccc(CN3CCC(C(=O)NC4CC4)CC3)c2)ccn1 [Example 1.203] | 56 |
| COc1cc(F)cc(C(=O)Nc2cccc(CN3CCC(C(=O)NC4CCCCC4)CC3)c2)c1 [Example 1.124] | 5 |
| CCc1ccc(C(=O)Nc2cccc(CN3CCC(C(=O)NC4CCCCC4)CC3)c2)cc1 [Example 1.097] | 5 |
| CCN(CC)c1ccc(C(=O)Nc2cccc(CN3CCC(C(=O)NC4CCCCC4)CC3)c2)cn1 [Example 1.071] | 182 |
| Cc1cccc(C(=O)Nc2cccc(CN3CCC(C(=O)NC4CC4)CC3)c2)n1 [Example 1.201] | 3 |
| Cc1cnc(C(=O)Nc2cccc(C(C)N3CCC(C(=O)NC4CCCCC4)CC3)c2)cn1 (racemic) [Example 1.185] | 15 |
| O=C(Nc1cccc(CN2CCC(C(=O)NC3CCCCC3)CC2)c1)c1ccc(CCF)cc1 [Example 1.148] | 5 |
| COc1cccc(C(=O)Nc2cccc(CN3CCC(C(=O)NC4CCCCC4)CC3)c2)c1 [Example 1.023] | 4 |
| O=C(Nc1nc(CN2CCC(C(=O)NC3CCCC3)CC2)cs1)c1ccc(Cl)cc1 [Example 1.293] | 81 |
| CCc1ccc(NC(=O)c2cccc(C(F)(F)F)n2)cc1CN1CCC(C(=O)NC(C)(C)C)CC1 [Example 1.332] | 16 |
| Cc1c(CN2CCC(C(=O)NC(C)(C)C)CC2)cccc1NC(=O)c1ccc(F)cc1 [Example 1.313] | 19 |
| O=C(Nc1cccc(CN2CCC(C(=O)NC3CCCC3)CC2)c1)c1cc(C(F)(F)F)ccn1 [Example 1.216] | 7 |
| 1-[3-(4-Chloro-benzoylamino)-benzyl]-piperidine-4-carboxylic acid (tetrahydro-pyran-4-yl)-amide [Example 2.013] | 13 |
| CC(C)(C)NC(=O)C1CCN(Cc2cccc(NC(=O)C3Cc4ccccc43)c2)CC1 (racemic) [Example 1.271] | 1 |
| CC(C)(C)NC(=O)C1CCN(Cc2cccc(NC(=O)Cc3cccc(C(F)(F)F)c3Cl)c2)CC1 [Example 1.249] | 2 |

| Compound | EC50 [nM] |
| --- | --- |
| CC(C)(C)NC(=O)C1CCN(Cc2cccc(NC(=O)Cc3ccccc3Cl)c2)CC1 [Example 1.258] | 1 |
| O=C(Nc1cccc(CN2CCC(C(=O)NC3CCCCC3)CC2)c1)c1ccc(Cl)cn1 [Example 1.094] | 1 |
| O=C(Nc1cccc(CN2CCC(C(=O)NC3CCCCC3)CC2)c1)c1cncc(C2CC2)c1 [Example 1.147] | 5 |
| CC(C)CN(C)C(=O)C1CCN(Cc2cccc(NC(=O)c3cncc(Cl)c3)c2)CC1 [Example 1.278] | 6 |
| CC(C)(C)NC(=O)C1CCN(Cc2cccc(NC(=O)c3ccc(F)cn3)c2)CC1 [Example 4.020, 5-Fluoro-pyridine-2-carboxylic acid [3-(4-tert-butylcarbamoyl-piperidin-1-ylmethyl)-phenyl]-amide] | 0.6 |
| O=C(Nc1cccc(CN2CCC(C(=O)NC3CCCCC3)CC2)c1)c1ccccc1 [Example 1.014] | 3 |
| CC(C)CN(C)C(=O)C1CCN(Cc2cccc(NC(=O)c3ccc(C(F)(F)F)cn3)c2)CC1 [Example 1.275] | 3 |
| Cc1ccc(C(=O)Nc2cccc(CN3CCC(C(=O)NC4CCCCC4)CC3)c2)c(Cl)n1 [Example 1.070] | 40 |
| O=C(Nc1cccc(CN2CCC(C(=O)NC3CC3)CC2)c1)c1ccc(F)cc1 [Example 1.199] | 3 |
| Cc1cc(C(=O)Nc2cccc(CN3CCC(C(=O)NC4CCCCC4)CC3)c2)no1 [Example 1.005] | 18 |
| O=C(Cc1ccccc1Cl)Nc1cccc(CN2CCC(C(=O)NC3CCCCC3)CC2)c1 [Example 1.025] | 3 |
| N#Cc1ccc(C(=O)Nc2cccc(CN3CCC(C(=O)NC4CCCCC4)CC3)c2)cc1 [Example 1.107] | 8 |
| O=C(Nc1cccc(CN2CCC(C(=O)NC3CCCC3)CC2)c1)c1cncc(C(F)(F)F)c1 [Example 1.212] | 2 |
| Cc1cc(F)cc(C(=O)Nc2cccc(CN3CCC(C(=O)NC4CCCCC4)CC3)c2)c1 [Example 1.117] | 4 |
| Cc1cccc(C(=O)Nc2cccc(CN3CCC(C(=O)NC4CCCCC4)CC3)c2)c1 [Example 1.100] | 3 |
| COc1ccc(NC(=O)c2cncc(C)c2)cc1CN1CCC(C(=O)NC(C)(C)C)CC1 [Example 1.297] | 98 |
| O=C(Nc1cccc(CN2CCC(C(=O)NC3CC3)CC2)c1)c1cncc(F)c1 [Example 1.204] | 47 |
| O=C(Nc1cccc(CN2CCC(C(=O)NC3CCCCC3)CC2)c1)c1cccnc1N1CCOCC1 [Example 1.073] | 371 |
| CC(C)(C)NC(=O)C1CCN(Cc2cccc(NC(=O)c3cnc4cc(Cl)ccc4c3)c2)CC1 [Example 1.236] | 5 |
| O=C(CCc1ccccc1)Nc1cccc(CN2CCC(C(=O)NC3CCCCC3)CC2)c1 [Example 1.034] | 18 |
| CCC(C)(C)NC(=O)C1CCN(Cc2cccc(NC(=O)c3ccc(F)c[n+]3[O-])c2)CC1 [Example 4.021, 5-Fluoro-1-oxy-pyridine-2-carboxylic acid {3-[4-(1,1-dimethyl-propylcarbamoyl)-piperidin-1-ylmethyl]-phenyl}amide] | 2 |
| O=C(Nc1cccc(CN2CCC(C(=O)NC3CCCCC3)CC2)c1)c1ccccc1Cl [Example 1.050] | 12 |
| O=C(Nc1ccc(Cl)c(CN2CCC(C(=O)NC3CCCC3)CC2)c1)c1ccc(F)cc1 [Example 1.219] | 0.9 |
| O=C(Nc1cccc(CN2CCC(C(=O)NC3CCCCC3)CC2)c1)c1cccc(Cl)c1 [Example 1.033] | 2 |
